Results taken from patent US20120122991A1, “METHOD FOR TREATING CANCER BY INCREASING AMP-ACTIVATED KINASE ACTIVITY” (Dana-Farber Cancer Institute, Inc., priority 2003, published 2012).

Test system: HeLa cells
Assay: Cell survival (MTT assay, phase contrast) of HeLa cells stably expressing vector, WT or KD LKB1
Assay type: cell-based, human
Settings: 2.5 mM AICAR, within 8 h
Method: Results are representative of four independent experiments. Cell viability was determined following AICAR or UV expressed as a percentage of untreated controls. Cell viability quantified by MTT assays run in triplicate on indicated HeLa stable cell lines treated with 2.5 mM AICAR or 50 j/cm^2 UV for 8 h. Results are representative of two independent experiments.
Kinase Assays and Cellular Analysis: AMPK kinase activity was measured using the SAMS peptide as previously described (7). LKB1 phosphorylation of AMPK was carried out in kinase buffer (50 mM Tris pH 7.5, 10 mM MgCl2, 1 mM DTT, 100 μM ATP) for 20 mins at 30° C. For immunopreciptations of active LKB1 kinase, Flag-tagged LKB1 was co-transfected with an equimolar amount of STRAD expression plasmid into HT1080 cells and immunoprecipitated using M2-agarose (Sigma) 24 h post-transfection in NP40 lysis buffer26. Before kinase assays, immunoprecipitated LKB1 was washed 3× in lysis buffer then 2× in kinase buffer. Soluble MBP-AMPK was added at 5 μg per kinase reaction. […]
To determine if LKB1 can mediate a biological response to a stimulus that activates the AMPKK/AMPK cascade we investigated whether LKB1 might modulate cell death under circumstances where AMPK would be activated. […] The extent of cell survival conferred by LKB1 reconstitution in the HeLa cells was quantified by MTT assay (FIG. 5b,c).

NC(=O)c1ncn([C@@H]2O[C@H](CO)[C@@H](O)[C@H]2O)c1N [AICAR, 5-aminoimidazole-4-carboxamide 1-β-D-ribofuranoside]
cell death (vector control and kinase-dead LKB1 expressing HeLa cells): extensive cell death | cell viability (wild-type LKB1 expressing HeLa cells): nearly totally viable
